The values below come from patent EP2818472A1, “Imidazo[4,5-c]pyridine and pyrrolo[3,2-c]pyridine compounds as G-protein-coupled receptor kinase 5 (GRK5) modulators” (Max-Planck-Gesellschaft zur Förderung der Wissenschaften …, priority 2013, dated 2014).

Some results are limits rather than exact numbers.

The first experiment deals with beta-TC6 cells. Put plainly: Insulin HTRF assay (relative activity Ar) in beta-TC6 cells. Format: cell-based, mouse. Conditions: Mus musculus, Beta-TC6, 4 h, insulin HTRF, supernatant of beta-TC6 cells, incubation with test compound at 37°C for 2, 3, 4h; read-out: Ar (relative activity). From the text:
For further screening of compounds derived from compounds described above for their ability to regulate insulin release an insulin HTRF® (Homogeneous Time-Resolved Fluorescence; Cisbio International, France) was used. This assay is based on two antibodies against insulin binding to different epitopes of insulin. One of these antibodies is coupled to Europium (Ab-Eu-Cryptate) and the other one to the fluorophore XL665 (Ab-XL665). If the insulin is secreted into the supernatant of cell culture, both antibodies can bind to insulin and come therefore into close proximity, which allows upon excitation that energy transfer between (FRET) the long-life fluorescent donor Europium (cryptate) and the acceptors XL665. FRET increases proportionally with insulin concentration.
The automated assay protocol is as follows: • On day 1, 15k beta-TC6 cells per well were seeded for 24 or 48 h in 50 µL complete medium. On day 2 or respective on day 3, the medium is removed and cells are washed with 60 µL 1xPBS and 20 µL induction buffer is added using BioTek washer. Subsequently, 10 µL Sunitininb (5 -µM f.c.) or the test compound in induction buffer; 0.5% f.c. DMSO (CyBi-well) is transferred to the cells. The cells are then incubated at 37°C for 2, 3, 4h.
First 10 µL supernatant is transferred from the cell plates in HTRF plates (CyBi-well). 10 µL of 0, 1, 2, and 4 ng/ml insulin standard controls in assay medium is used as a control. To each well 10 µL of combined 1:25 Ab-XL665 (Acc) and 1:20 Ab-Eu-Cryptate (WellMate) are added and incubated for 120 min at RT in the dark. Finally HTRF is measured on ViewLux ultra high throughput microplate imager (PerkinElmer).
The evaluation software DataFactoty derives relative activities Ar according to the following equation: Ar = (V-R(0%control))/(R(100%control) -R0%control)) × 100 [formula]
The activity of the compounds was classified according to their Ar (relative activity) into the following ranges: […]
In the case of `CS(=O)(=O)c1ccc(Nc2cc3[nH]c(-c4ccccn4)cc3cn2)cc1` [Compound 72, N-(4-methylsulfonylphenyl)-2-(2-pyridyl)-1H-pyrrolo[3,2-c]pyridin-6-amine], the Emax was greater than 100%.

`CC(=O)Nc1cccc(Nc2nccc3c2cc(-c2ccsc2)n3C)c1` [Compound 287, N-[3-[[1-methyl-2-(3-thienyl)pyrrolo[3,2-c]pyridin-4-yl]amino]phenyl]acetamide]: the Emax was in the range of 50 to 100%. With `CC(C)c1ccc(Nc2nccc3c2ncn3Cc2ccccc2)cc1` [Compound 457, 1-benzyl-N-(4-isopropylphenyl)imidazo[4,5-c]pyridin-4-amine], the Emax is 30 to 50%.

Turning to `CN(C)c1ccc(-c2cc3cnc(Nc4ccncn4)cc3n2Cc2ccccc2)cc1` [Compound 61, 1-benzyl-2-(4-dimethylaminophenyl)-N-pyrimidin-4-yl-pyrrolo[3,2-c]pyridin-6-amine], the Emax is 0 to 30%.

Regarding `CNc1nc2cnc(Nc3ccc4c(c3)OCCO4)cc2n1CCN1CCOCC1` [Compound 554, N6-(2,3-dihydro-1,4-benzodioxin-6-yl)-N2-methyl-1-(2-morpholinoethyl)imidazo[4,5-c]pyridine-2,6-diamine], the Emax lay within 50 to 100%. Take `CS(=O)(=O)c1cccc(Nc2nccc3[nH]c(-c4cccc(F)c4)cc23)c1` [Compound 202, 2-(3-fluorophenyl)-N-(3-methylsulfonylphenyl)-1H-pyrrolo[3,2-c]pyridin-4-amine]: the Emax fell in the range of 30 to 50%.

For the molecule `COc1ccc(Nc2cc3[nH]c(-c4cnn(C)c4)cc3cn2)cc1OC` [Compound 123, N-(3,4-dimethoxyphenyl)-2-(1-methylpyrazol-4-yl)-1H-pyrrolo[3,2-c]pyridin-6-amine], the Emax was greater than 100%. In the case of `CC(=O)N(C)c1cccc(-c2cc3cnc(Nc4ccc(N5CCN(C)CC5)cc4)cc3n2C)c1` [Compound 164, N-methyl-N-[3-[1-methyl-6-[4-(4-methylpiperazin-1-yl)anilino]pyrrolo[3,2-c]pyridin-2-yl]phenyl]acetamide], the Emax fell in the range of 50 to 100%. As for `CNc1nc2cnc(Nc3ccc(OC)cc3)cc2n1-c1ccccc1` [Compound 509, N6-(4-methoxyphenyl)-N2-methyl-1-phenyl-imidazo[4,5-c]pyridine-2,6-diamine], the Emax lay in the range of 50 to 100%. With `COc1cc(Nc2nccc3[nH]c(-c4ccc(C)cc4)nc23)cc(OC)c1OC` [Compound 377, 2-(p-tolyl)-N-(3,4,5-trimethoxyphenyl)-1H-imidazo[4,5-c]pyridin-4-amine], the Emax was in the range of 30 to 50%. Take `CC(=O)Nc1cccc(Nc2cc3c(cn2)cc(-c2ccc(C(=O)N(C)C)cc2)n3C)c1` [Compound 56, 4-[6-(3-acetamidoanilino)-1-methyl-pyrrolo[3,2-c]pyridin-2-yl]-N,N-dimethyl-benzamide]: the Emax fell in the range of 50 to 100%. On the same count and under the same terms, the value for `COc1cc(Nc2cc3c(cn2)nc(-c2ccccc2)n3C)cc(OC)c1OC` [Compound 701, 1-methyl-2-phenyl-N-(3,4,5-trimethoxyphenyl)imidazo[4,5-c]pyridin-6-amine] was 50 to 100%; that for `CNc1nc2cnc(Nc3ccc(C#N)cc3)cc2n1-c1cccc(F)c1` [Compound 686, 4-[[1-(3-fluorophenyl)-2-(methylamino)imidazo[4,5-c]pyridin-6-yl]amino]benzonitrile] was 30 to 50%.

Take `CS(=O)(=O)c1ccc(Nc2cc3[nH]c(-c4cn[nH]c4)cc3cn2)cc1` [Compound 120, N-(4-methylsulfonylphenyl)-2-(1H-pyrazol-4-yl)-1H-pyrrolo[3,2-c]pyridin-6-amine]: the Emax is greater than 100%. On to `COc1ccc(-c2nc3c(NCC(C)C)nccc3[nH]2)cc1OC` [Compound 344, 2-(3,4-dimethoxyphenyl)-N-isobutyl-1H-imidazo[4,5-c]pyridin-4-amine], for which the Emax fell in the range of 30 to 50%. As for `Cn1c(NCCN2CCOCC2)nc2cnc(-c3cccc(F)c3)cc21` [Compound 769, 6-(3-fluorophenyl)-1-methyl-N-(2-morpholinoethyl)imidazo[4,5-c]pyridin-2-amine], the Emax lay in the range of 0 to 30%. The same measure, in the same setting: as for `c1cncc(Nc2nccc3[nH]c(-c4ccco4)nc23)c1` [Compound 465, 2-(2-furyl)-N-(3-pyridyl)-1H-imidazo[4,5-c]pyridin-4-amine], the figure is 0 to 30%; as for `COc1cc(Nc2nccc3[nH]c(-c4cccc(C)c4)nc23)cc(OC)c1OC` [Compound 435, 2-(m-tolyl)-N-(3,4,5-trimethoxyphenyl)-1H-imidazo[4,5-c]pyridin-4-amine], 50 to 100%; as for `COc1ccc(-c2nc3c(N(C)c4ccccc4)nccc3[nH]2)cc1OC` [Compound 349, 2-(3,4-dimethoxyphenyl)-N-methyl-N-phenyl-1H-imidazo[4,5-c]pyridin-4-amine], 30 to 50%. The same measure, in the same setting: the value for `CNc1nc2cnc(Nc3ccc(O)cc3)cc2n1-c1cc(OC)c(OC)c(OC)c1` [Compound 485, 4-[[2-(methylamino)-1-(3,4,5-trimethoxyphenyl)imidazo[4,5-c]pyridin-6-yl]amino]phenol] was 50 to 100%; that for `CNc1nc2cnc(-c3ccc(CO)cc3)cc2n1C` [Compound 830, [4-[1-methyl-2-(methylamino)imidazo[4,5-c]pyridin-6-yl]phenyl]methanol] was 30 to 50%; that for `CNc1nc2cnc(Nc3ccc(OC)c(OC)c3)cc2n1Cc1ccco1` [Compound 520, N6-(3,4-dimethoxyphenyl)-1-(2-furylmethyl)-N2-methyl-imidazo[4,5-c]pyridine-2,6-diamine] was 50 to 100%.

Turning to `COc1ccc(-c2nc3c(NCc4ccc(N(C)C)cc4)nccc3[nH]2)cc1OC` [Compound 350, 2-(3,4-dimethoxyphenyl)-N-[(4-dimethylaminophenyl)methyl]-1H-imidazo[4,5-c]pyridin-4-amine], the Emax fell in the range of 30 to 50%. In the case of `CC(=O)Nc1cccc(Nc2cc3[nH]c(-c4cn[nH]c4)cc3cn2)c1` [Compound 117, N-[3-[[2-(1H-pyrazol-4-yl)-1H-pyrrolo[3,2-c]pyridin-6-yl]amino]phenyl]acetamide], the Emax is greater than 100%.

With `COc1ccc(-c2nc3c(Nc4cccc(S(C)(=O)=O)c4)nccc3[nH]2)cc1OC` [Compound 351, 2-(3,4-dimethoxyphenyl)-N-(3-methylsulfonylphenyl)-1H-imidazo[4,5-c]pyridin-4-amine], the Emax lay within 50 to 100%. Still for that read-out and setting: the value for `COc1ccccc1Nc1nc2cnc(-c3cccnc3)cc2n1C` [Compound 613, N-(2-methoxyphenyl)-1-methyl-6-(3-pyridyl)imidazo[4,5-c]pyridin-2-amine] was 50 to 100%. In the case of `c1ccc(Cn2c(-c3cccnc3)cc3cnc(Nc4ccccn4)cc32)cc1` [Compound 98, 1-benzyl-N-(2-pyridyl)-2-(3-pyridyl)pyrrolo[3,2-c]pyridin-6-amine], the Emax was 30 to 50%. For the molecule `Cn1c(NCC2CC2)nc2cnc(Nc3ccc(C(F)(F)F)cc3)cc21` [Compound 763, N2-(cyclopropylmethyl)-1-methyl-N6-[4-(trifluoromethyl)phenyl]imidazo[4,5-c]pyridine-2,6-diamine], the Emax lay in the range of 0 to 30%.

For `CC(=O)Nc1cccc(Nc2cc3[nH]c(-c4cccnc4)cc3cn2)c1` [Compound 80, N-[3-[[2-(3-pyridyl)-1H-pyrrolo[3,2-c]pyridin-6-yl]amino]phenyl]acetamide], the Emax was greater than 100%. For `Cn1cc(-c2cc3cnc(Nc4ccc5c(c4)OCO5)cc3n2C)cn1` [Compound 143, N-(1,3-benzodioxol-5-yl)-1-methyl-2-(1-methylpyrazol-4-yl)pyrrolo[3,2-c]pyridin-6-amine], the Emax is greater than 100%.

Turning to `CN(C)c1cccc(Nc2nccc3c2ncn3C)c1` [Compound 450, N1,N1-dimethyl-N3-(1-methylimidazo[4,5-c]pyridin-4-yl)benzene-1,3-diamine], the Emax lay in the range of 30 to 50%. Consider `Cn1cc(-c2cc3cnc(Nc4cccc(NS(C)(=O)=O)c4)cc3n2Cc2ccccc2)cn1` [Compound 156, N-[3-[[1-benzyl-2-(1-methylpyrazol-4-yl)pyrrolo[3,2-c]pyridin-6-yl]amino]phenyl]methanesulfonamide], for which the Emax lay within 30 to 50%.

As for `COc1ccc(Nc2nccc3[nH]c(-c4ccsc4)cc23)cn1` [Compound 254, N-(6-methoxy-3-pyridyl)-2-(3-thienyl)-1H-pyrrolo[3,2-c]pyridin-4-amine], the Emax lay in the range of 50 to 100%. `Clc1ccc(CNc2nccc3[nH]c(-c4ccncc4)nc23)cc1` [Compound 433, N-[(4-chlorophenyl)methyl]-2-(4-pyridyl)-1H-imidazo[4,5-c]pyridin-4-amine]: the Emax lay within 30 to 50%.

The same experiment, now with this note: Mus musculus, Beta-TC6, 4 h, read-out: Ar (relative activity).
`CCN(CC)CCNC(=O)c1ccc(Nc2nccc3[nH]c(-c4cccc(OC)c4F)nc23)cc1` [Compound 473, N-(2-diethylaminoethyl)-4-[[2-(2-fluoro-3-methoxy-phenyl)-1H-imidazo[4,5-c]pyridin-4-yl]amino]benzamide]: the Emax is greater than 100%.
